Laboratory results reported in patent publication US10172963B2, “Method of binding a CSE1L tumor marker in a tumor of an animal” (priority 2011, dated 2019).

Legend:
Type in all cases: cell-based
B16-Ras cells [1] = assay: Levels of microvesicular MMP-2 in microvesicles from conditioned media (immunoblot); settings: 50 μM, 48 h, serum-starved B16-Ras cells
Description: (§1) Cells were washed with phosphate-buffered saline (PBS) and lysed in ice-cold radioimmunoprecipitation assay (RIPA) buffer [25 Mm Tris-HCl (pH 7.2), 0.1% SDS, 0.1% Triton X-100, 1% sodium deoxycholate, 150 mM NaCl, 1 mM EDTA, 1 mM sodium orthovanadate, 1 mM phenylmethylsulfonyl fluoride, 10 μg/ml aprotinin, 5 μg/ml leupeptin, 25 mM β-glycerophosphate, 5 mM sodium orthovanadate, and 5 mM sodium fluoride]. The protein concentrations were determined with a BCA protein assay kit (Pierce, Rockford, Ill., USA). Fifty micrograms of each protein sample was loaded onto SDS-polyacrylamide gel. Proteins were transferred to nitrocellulose membranes (Amersham Pharmacia, Buckinghamshire, UK). The membrane was blocked in blocking buffer [1% bovine serum albumin (BSA), 50 mM Tris-HCl (pH 7.6), 150 mM NaCl, and 0.1% Tween-20] at room temperature for 1 h. The blots were then incubated with primary antibodies at 4° C. overnight followed by incubation with secondary antibodies conjugated to horseradish peroxidase for 1 h. The levels of protein were detected by Forte Western HRP Substrate (Millipore Corp., Billerica, Mass., USA) according to the manufacturer's instructions.
Microvesicles were prepared from conditioned media or sera by size exclusion chromatography and ultracentrifugation. […] Fractions (1 ml) were collected, and the protein content was monitored by measuring absorbance at 280 nm. […]

B16-Ras cells [2] = assay: CSE1L in cell lysates and conditioned media by immunoblotting; settings: 50 μM, 24 h
Description: as §1, with “The membrane was blocked in blocking buffer [1% bovine serum albumin (BSA), 50 mM Tris-HCl (pH 7.6), 150 mM NaCl, and 0.1% Tween-20] at room temperature for 1 h. The blots were then incubated with primary antibodies at 4° C. overnight followed by incubation with secondary antibodies conjugated to horseradish peroxidase for 1 h.” left out
For Immunoblotting with biotin-conjugated antibodies, the biotin-conjugated antibody was prepared by biotinylating anti-CSE1L antibodies using the Biotin Labeling Kit-NH2 kit according to the manufacturer's protocol (Dojindo Laboratories, Kumamoto, Japan). The Immunoblot was then reacted with horseradish peroxidase (HRP)-conjugated streptavidin and the levels of protein were detected by Forte Western HRP Substrate. […]

B16-Ras cells [3] = assay: Threonine phosphorylated CSE1L by immunoprecipitation and immunoblotting; settings: 50 μM, 24 h
Description: Cells grown on plastic dishes were washed with PBS and incubated in immunoprecipitation lysis buffer [10 mM Tris-HCl (pH 7.4), 10 mM EDTA, 0.4% deoxycholic acid, 0.5% Triton X-100, 1 mM phenylmethylsulfonyl fluoride, 10 μg/ml aprotinin, 5 μg/ml leupeptin, 25 mM β-glycerophosphate, 5 mM sodium orthovanadate, and 5 mM sodium fluoride] at 4° C. for 20 min. Cells were scraped and disrupted by pipetting. The cell lysate was cleared of insoluble materials by centrifugation at 12,000 g for 10 min at 4° C., and the protein concentrations were determined with a BCA protein assay kit (Pierce). […]
(A) Levels of cellular threonine phosphorylated CSE1L in B16-dEV cells and B16-Ras cells treated with DMSO or 50 μM PD98059 for 24 h were analyzed by immunoprecipitation with anti-CSE1L antibodies and immunoblotting with HRP-conjugated anti-phosphothreonine antibodies. […] (B) Levels of secretory threonine phosphorylated CSE1L in cell number-standardized conditioned media harvested from serum-starved B16-dEV cells and B16-Ras cells treated with DMSO or 50 μM PD98059 for 24 h were analyzed by immunoprecipitation with anti-CSE1L antibodies and immunoblotting with HRP-conjugated anti-phosphothreonine antibodies. […] (D) The levels of CSE1L in the pool of cancer sera and normal sera were analyzed by immunoblotting with anti-CSE1L antibodies (clone 24).

B16-Ras cells [4] = assay: Gelatin zymography assay of microvesicular MMP-2; settings: 50 μM PD98059, or stable CSE1L shRNA transfection; microvesicles from conditioned media of serum-starved cells
Description: Microvesicles harvested from cell number-standardized conditioned media were resolved using 10% SDS-PAGE containing 1 mg/ml gelatin. The gel was washed twice with 2.5% Triton X-100 for 30 min to remove SDS, and subsequently incubated in buffer containing 50 mM Tris-HCl (pH 7.6), 200 mM NaCl, and 10 mM CaCl2 at 37° C. for 24 h. The gel was stained with Comassie blue R-250 (0.125% Comassie blue R-250, 50% methanol, 10% acetic acid) for 30 min and destained with destaining solution (20% methanol, 10% acetic acid, 70% ddH2O) until the clear bands were visualized.
(A) Gelatin zymographic activities of MMP-2 in microvesicles harvested form the cell number-standardized conditioned media of serum-starved B16-dEV, B16-Ras, B16-CSE1L, and B16-Ras/anti-CSE1L cells treated with or without DMSO or 50 μM PD98059 for 48 h as indicated. (B) The in vitro invasion abilities of B16-dEV, B16-Ras, B16-CSE1L, and B16-Ras/anti-CSE1L cells analyzed by Matrigel-based invasion assays. The mean±SD numbers of invasive cells were 109.4±12.6, 406.8±23.9, 311.25±32.4, and 46.75±8.7 cells per field for B16-dEV, B16-CSE1L, B16-Ras, and B16-Ras/anti-CSE1L cells, respectively.

[5] = conditioned media of serum-starved B16-Ras cells

COc1cccc(-c2cc(=O)c3ccccc3o2)c1N [PD98059]
Effect on v-H-ras-induced increase in microvesicular MMP-2 (B16-Ras cells [1]): attenuated v-H-ras-induced increase in MMP-2 in microvesicles | Effect on CSE1L expression in cells (B16-Ras cells [2]; cell lysates): did not obviously affect CSE1L expression in cells | Effect on v-H-ras-induced increase in CSE1L secretion (B16-Ras cells [2]; [5]): attenuated v-H-ras-induced increase in CSE1L secretion | Effect on v-H-ras-increased threonine phosphorylation of cellular CSE1L (B16-Ras cells [3]; cell lysates of B16-Ras cells): inhibited v-H-ras-increased threonine phosphorylation in CSE1L | Effect on v-H-ras-increased secretion of threonine phosphorylated CSE1L (B16-Ras cells [3]; [5]): inhibited v-H-ras-increased secretion of threonine phosphorylated CSE1L | Effect on v-H-ras-induced increase in zymographic activity of microvesicular MMP-2 (B16-Ras cells [4]): attenuated the v-H-ras-induced increase in the zymographic activity of microvesicular MMP-2
